According to article doi:10.1101/2024.04.25.591105v1 (biorxiv, 2024):

Target: 14-3-3σΔC / ERα phosphopeptide complex (crystals) (Homo sapiens, UniProt P03372+P31947)
Assay: X-ray crystallography, soaking
Assay type: binding
Settings: ternary complex with Ac-ERα phosphopeptide

Sequence of 14-3-3σΔC / ERα phosphopeptide complex (crystals) (P31947 1-231, stated change not applied, other chains not shown): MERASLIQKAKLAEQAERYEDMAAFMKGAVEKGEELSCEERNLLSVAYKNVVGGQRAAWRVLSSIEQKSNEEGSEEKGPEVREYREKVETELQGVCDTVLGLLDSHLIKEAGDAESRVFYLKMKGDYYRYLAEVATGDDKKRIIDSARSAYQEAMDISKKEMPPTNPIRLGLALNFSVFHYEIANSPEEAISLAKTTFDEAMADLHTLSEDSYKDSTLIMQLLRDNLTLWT

Row | Structure (SMILES) | X-ray crystallography, soaking
1 | C=CC(C)(C)OC[C@H]1O[C@H](O[C@@H]2C3=C([C@H](C)CNC(C)=O)C[C@H](O)[C@]3(C)/C=C3\[C@@H](COC)CC[C@H]3[C@@H](C)[C@H]2O)[C@H](O)[C@@H](O)[C@@H]1O [FC-NAc] | 8BZH (FC-NAc)
2 | COC[C@H]1CC[C@@H]2/C1=C/[C@]1(C)C(=C([C@H](C)CNC(C)=O)C[C@@H]1O)[C@@H](O)[C@H](O)[C@@H]2C [FC-NAg] | 8BZT (FC-NAg)
